Reference: patent US20260166182A1, “CYANINE-BASED FLUOROPHORES” (The General Hospital Corporation, priority 2022, published 2026)

Columns and labels:
Assay type in all cases: in vivo, mouse
[1] = system: immune cells from bone marrow and tumor tissues; test: Flow cytometry analysis of fluorophore-targeted immune cells from bone marrow and tumor
Procedure: Flow cytometry analysis: Bone marrow tissue was mechanically dissociated and digested with collagenase D (175 unit/mL, Roche) and DNase I (100 unit/mL, Roche) followed by EDTA (2 mM, Invitrogen). Erythrocytes were removed using RBC Lysis Buffer (Invitrogen). Tumor tissue was mechanically dissociated and digested with collagenase I (175 unit/mL, Thermo-fisher), Collagenase IV (250 unit/mL, Thermo-fisher, 1700019), and DNase I (100 unit/mL) followed by EDTA ([…]). Immune cells were isolated from cell suspensions of the bone marrow or tumor tissue using Ficoll® Paque Plus (GE Healthcare). Isolated cells were stained with anti-mouse F4/80 (BM8, Biolegend, 123131), anti-mouse Ly-6G (1A8, Biolegend, 127639), anti-mouse Ly-6C(HK1.4, Biolegend, 128011), anti-mouse CD11c (N418, Biolegend, 117313), anti-mouse CD103 (2E7, Biolegend, 121425), anti-mouse I-A/I-E (M5/114.15.2 Biolegend, 107611), anti-mouse/human CD11b (M1/70, Biolegend, 101254) and anti-mouse CD45 antibodies (30-F11, Biolegend, 103105) conjugated to fluorophores. Isolated cells were stained with Live/dead®-Aqua (Life Technologies) to distinguish live cells. Stained cells were fixed using 1% paraformaldehyde prior to analysis. Data acquisition was performed on a Fortessa cytometer (BD) followed by analysis on FlowJo software (Tree Star).

[2] = system: orthotopic lung cancer (LLC cell); test: Orthotopic lung tumor targeting; settings: 50 nmol, 48 h prior to imaging
Description: General NIR-II fluorescence imaging: A 640×512-pixel InGaAs camera (Ninox640, Raptor Photonics) and macro zoom lens (0-10×; Navitar Zoom 7000 with SWIR coating) along with 900, 1070, 1100, and 1200 nm long-pass (LP) filters from either Thorlab or Edmund optics were used to collect the NIR-II signal. InGaAs camera played a role as an open-air imaging system along with the support of the FLARE system. An 808 nm fiber-coupled diode laser ([…] at the sample) was used as an excitation source. Data acquisition was done using in-house developed software. The mice fur on the region of interest was shaved prior to imaging using a clipper and removed completely using a depilatory cream. 100 μL of SH1 in 5 w/v % BSA saline ([…]) was injected through the tail vein. Mice were imaged with intact skin using InGaAs camera. At least 3 mice were analyzed for each sample. […]
Statistical analysis: The fluorescence and background intensities of a region of interest over each tissue were quantified using customized imaging software and ImageJ v1.48 (National Institutes of Health, Bethesda, MD). The signal-to-background ratio (SBR) was calculated as SBR=fluorescence/background, where background was the fluorescence intensity of muscle. […] The differences among groups were determined using one-way ANOVA analysis to assess the statistical differences among more than two groups. […]

[3] = system: LLC tumor; test: Quantitative 3D FLECT/CT tumor accumulation; settings: from 24 h to 48 h post-injection
Procedure: Quantitative analysis using InSyTe FLECT/CT: 3D fluorescence images were acquired with the TriFoil Imaging InSyTe FLECT/CT, a commercial preclinical imaging system with full 3D fluorescence tomography imaging capability and an inline CT system. Animals were anesthetized with isoflurane during scans. FLECT scans were performed with 116 projections per slice, 780 nm laser for excitation, and 853/45 bandpass fluorescence emission filter. After data collection, fluorescence images were reconstructed using a proprietary FLECT reconstruction engine. CT scans were performed with 360 projections per slice, 35 kV tube voltage, 950 uA tube current, and 100 ms exposure. CT images were reconstructed using the COBRA filtered back-projection algorithm (Exxim, Computing Corporation, Pleasanton, CA). Quantitative analysis of 3D fluorescence images was performed using the VivoQuant 2020 image analysis software (Invicro, Boston, MA). FLECT and CT images were co-registered in VivoQuant 2020. Volumes-of-interest (VOI) were segmented via intensity thresholding, where the threshold limits were set to the local full-width-half-maximum (FWHM) intensity value for the lower threshold bound and local maximum intensity value for the upper threshold bound.

[4] = system: LLC tumor; test: Tumor histopathology with NIR fluorescence microscopy of resected LLC tumors; settings: histological NIR images
Procedure: Tumor histopathology evaluation: […] After rinsing with PBS, the fixed sections were counterstained with nuclear fast red, dehydrated by ethanol, transferred into xylene, and finally mounted according to the standard protocol. To determine the tissue distribution of the NIR fluorophore, the dissected tissues were embedded in Tissue-Tek optimum cutting temperature compound (Sakura Finetek, Torrance, CA) without a pre-fixation step. The tissue block was frozen at −80° C. Frozen sections were cut at a thickness of 10 or 50 μm by a cryostat (Leica, Germany). Then, the tissue sections were stained with hematoxylin and eosin (H&E). The BioTek Cytation 5 (Winooski, VT) was used for pathological fluorescence imaging and observation.

Compound: CCCCN1/C(=C/C=C2\CCCC(/C=C/C3=[N+](CCCC)c4ccc(Cl)cc4C3(C)C)=C2Cl)C(C)(C)c2cc(Cl)ccc21 [SH1, 1-butyl-2-((E)-2-((E)-3-(2-((E)-1-butyl-5-chloro-3,3-dimethylindolin-2-ylidene)ethylidene)-2-chlorocyclohex-1-en-1-yl)vinyl)-5-chloro-3,3-dimethyl-3H-indol-1-ium]
- targeted tumor-associated immune cells ([1]; CD11b+ DCs): 45.4%
- targeted tumor-associated immune cells ([1]; CD103+ DCs): 23.8%
- targeted tumor-associated immune cells ([1]; Ly6C^high monocyte): 48.6%
- targeted tumor-associated immune cells ([1]; Ly6C^low monocyte): 43.1%
- targeted tumor-associated immune cells ([1]; Macrophage): 45.7%
- cells identified as targeted TAICs in the tumor region ([1]; tumor): macrophages, Ly6C^low monocytes, and dendritic cells
- TBR against normal tissue [2]: 47.3
- TBR against the lung [2]: 3.12
- increase of % ID in cancer area [3]: more than 2 fold
- fluorescence signal location in resected tumor [4]: strong fluorescence signals in the targeted tumor
